Legend:
adult zebrafish = assay: Adult zebrafish caudal fin regeneration model; assay type: in vivo, Danio rerio; conditions: 15 μM in tank water, 26 h regeneration at 32° C., vs DMSO
Excerpt: We next tested the regenerative capabilities of zebrafish, which have a robust capacity to replace and renew organs and tissues derived from all three germ layers. Regenerating fin joints are reported to constitute a pre-osteoblast niche from which OSX-expressing (Sp7+) osteoblasts radiate de novo (Ando et al., 2017). Simultaneously, osteoblasts and osteogenic hypertrophic chondrocytes in both early and later stages of differentiation express collagen10 (col10a1) (Huycke et al., 2012).
Animals studies were performed according to protocols approved by the WCMC IACUC. Wildtype (AB/TU hybrid) zebrafish were maintained at 28.5° C. Larval fish were treated from 7 dpf to 8 dpf in tank water with DMSO or with a 24-hour pulse of 15 μM DIPQUO or inert analog BT344 or BT345, and were fixed at 9 dpf in 4% paraformaldehyde overnight rocking at 4° C. Fixed larvae were washed in PBS-0.1% Tween-20 (PBST), followed by 50% ethanol/50% PBST. Larvae were transferred to staining solution (66.5% ethanol, 100 mM MgCl2, 0.02% alizarin red) and incubated for 40 hours, rocking at room temperature in the dark. Larvae were washed in H2O+0.1% Tween-20, and excess stain removed by bleaching for approximately 10 minutes in the dark with a 1:1 mixture of 3% […] and 2% KOH. […] Images were acquired on a Zeiss LSM 800 confocal microscope and Sp7^+/col10a1^+ cells quantified using ImageJ.

C2C12 cells [1] = assay: C2C12 culture morphology and survival under treatment; assay type: cell-based, mouse; parameters: effect of continued treatment on C2C12 culture: dose or concentration left out as unconfirmed
C2C12 cells [2] = assay: qRT-PCR of osteoblast differentiation transcripts in C2C12 cells; assay type: cell-based, mouse; conditions: C2C12, 10 μM
Protocol: For quantitative RT-PCR analysis of gene expression in C2C12 cultures, cells were treated for 2 days with 10 μM DIPQUO and harvested into Trizol reagent (Invitrogen). One microgram of RNA was reverse transcribed using the VILO-RT kit (Invitrogen) to generate cDNA, which was diluted 1:25 in RNase-free H2O for qPCR with Sybr green using the Roche 480 II LightCycler and the 2^−ΔΔCT method (Livak and Schmittgen, 2001). For analysis of osteoclast gene expression, RAW 264.7 cells were treated with DMSO, 50 ng/ml RANKL, or 10 μM DIPQUO for 4 days, then harvested into Trizol reagent and processed as above. Mouse qPCR primers are as follows. Runx2: F([…]) (SEQ ID NO:1); R([…]) (SEQ ID NO:2); Dlx5: F([…]) (SEQ ID NO:3); R([…]) (SEQ ID NO:4); Osterix: F([…]) (SEQ ID NO:5); R([…]) (SEQ ID NO:6); ALP: F([…]) (SEQ ID NO:7); R([…]) (SEQ ID NO:8); Osteocalcin: F([…]) (SEQ ID NO:9); R([…]) (SEQ ID NO:10); Osteoactivin: F([…]) (SEQ ID NO:11); R([…]) (SEQ ID NO:12); CTSK: F([…]) (SEQ ID NO:13); R([…]) (SEQ ID NO:14); MMP9: F([…]) (SEQ ID NO:15); R([…]) (SEQ ID NO:16); Gapdh F([…]) (SEQ ID NO:17); R([…]) (SEQ ID NO:18). RNA-seq studies were carried out with the assistance of the Weill Cornell Genomics Core Facility, using the Illumina HiSeq4000 next-generation sequencer to generate reads from cDNA libraries generated from three biological replicates of day 2 DMSO- or DIPQUO-treated C2C12 cells. Gene sets were clustered by biological/disease function using Ingenuity Pathway Analysis (Qiagen Bioinformatics). Heatmaps with hierarchical clustering were generated in R using the CRAN package for a subset of genes involved in bone morphogenesis. Following normalization of the RNA Sequencing counts in DeSeq, z-scores were computed across samples within each gene for use in the heatmap. The accession number for the sequencing data reported in this paper is NCBI GEO: GSE125052.

p38-β = assay: Isoform-specific immunoprecipitation, p38-β activity in C2C12 cells; assay type: cell-based, mouse; conditions: C2C12, 10 μM DIPQUO
Excerpt: There are four separate p38 isoforms: α, β, γ, and δ. The respective roles of the α and β isoforms in bone differentiation have been dissected to the extent that p38-β is known to be involved specifically in skeletogenesis (Greenblatt et al., 2010), while p38-α has roles that are both wide-ranging and highly specific, for instance in dentition (Greenblatt et al., 2015). Accordingly, we used small interfering RNA-mediated knockdown to probe the specificity of DIPQUO to block the activity of one or the other isoform (FIG. 6E). […] To confirm the biological significance of this observation, the α and β isoforms were immunoprecipitated from C2C12 cells and analyzed for relative activity levels.

## Cc1cc(C)c2[nH]c(=O)c(-c3[nH]cnc3-c3ccccc3)cc2c1 [RU-0226606, 6,8-dimethyl-3-(4-phenyl-1H-imidazol-5-yl)quinolin-2(1H)-one]
Adult zebrafish
  number of Sp7+/Col10a1+ cells emanating from new fin ray joints: significantly increased
C2C12 cells [1]; C2C12
  cellular morphology: rapid rearrangement of cellular architecture from fibroblast-like to a cuboidal phenotype
C2C12 cells [1]; continued treatment, partially rescued by IGF-1
  effect of continued treatment on C2C12 culture: attrition of the C2C12 culture
C2C12 cells [2]; 2 days, compared with BMP-treated positive controls
  changes in expression of OCN and Osteoactivin (qRT-PCR): much higher with DIPQUO treatment than in BMP-treated positive controls
C2C12 cells [2]; 2 days, vs DMSO
  expression of Runx2 and Osterix (qRT-PCR): significant upregulation
C2C12 cells [2]; day 2, vs DMSO
  expression of ALP and OCN (qRT-PCR): substantially increased by day 2
p38-β
  p38-β isoform activity after immunoprecipitation: significantly activated
